{"source": "patent US11872196B2", "about": "“Use of cannabidiol in treatment of pulmonary hypertension” (DEYI PHARMARMACEUTICAL LTD., priority 2017, dated 2024)", "key": {"TNF-α": {"test_system": "TNF-α", "assay": "LPS-induced primary alveolar macrophages, TNF-α expression by fluorescence quantitative PCR", "type": "cell-based, mouse", "details": "0.5, 1, 5 μM CBD pre-treatment 0.5 h, then 100 ng/mL LPS, 5 h; dose-dependent", "description": "(§1) Primary alveolar macrophages were isolated according to the method by Yang et al. (Yang, H. M., Ma, J. Y., Castranova, V., and Ma, J. K. (1997). Effects of diesel exhaust particles on the release of interleukin-1 and tumor necrosis factor-alpha from rat alveolar macrophages. Experimental lung research 23, 269-284): two-month-old mice were taken and injected intraperitoneally with pentobarbital to be anesthetized. The mice were fixed at a supine position, and disinfected at the neck, and the neck skin was cut open to strip gland muscles and expose the trachea. A small opening was cut in an upper part of the trachea without cutting off. A small white pipette tip was inserted onto a 1 ml pipette to pipette 1 ml PBS at 4° C. (free of Ca^2+, free of Mg^2+, […]) [50 ml PBS+0.00876 g EDTA] into the lung from the opening, and then pipetted out from the opening after blowing in. Then fresh PBS was taken and pipetted into and out from the opening repeatedly for 3-4 times. The collected alveolar irrigation solution was centrifuged at 200×g for 5 minutes, and the supernatant was discarded. The cells were washed once with a serum-free RPMI-1640 culture medium and centrifuged at 200×g for 5 minutes. The cells were resuspended by adding a serum-containing RPMI-1640 and then inoculated. The cells were subjected to adherence for 2 h, and then washed for three times with PBS. […]"}, "[1]": {"test_system": "C57BL/6 mice with pulmonary arterial hypertension caused by hypoxia", "assay": "Pathological changes of pulmonary arterioles (HE and elastic fiber staining, vascular remodeling rate) in hypoxia PAH mice", "type": "in vivo, mouse", "method": "(§2) Healthy and lively C57BL/6 mice at the age of 4-6 weeks, with glossy hair colors, and body weights of (25.15±2.15) g (Laboratory Animal Center of Academy of Military Medical Sciences, SPF grade). The mice were divided into four groups: • Group 1 (wild-type normoxia, used as a control group): 10 female mice and 10 male mice under normoxia conditions; • Group 2 (wild-type hypoxia, used as a control group): 10 female mice and 10 male mice under hypoxia conditions; • Group 3 (10 mg/kg, used as an experimental group): 10 female mice and 10 male mice were treated with 10 mg/kg by gavage under hypoxia conditions; • Group 4 (50 mg/kg, used as an experimental group): 10 female mice and 10 male mice were treated with 50 mg/kg by gavage under hypoxia conditions.\n(§3) The mice of groups 2-4 were placed in an animal feeding chamber under normal pressure and hypoxia, the oxygen concentration in the chamber was maintained at 9%-11%, and the temperature in the chamber was maintained at 22-26° C. The mice of group 1 inhaled normal atmosphere air, and the other conditions were the same as those for mice of groups 2-4.\nIn order to explore whether CBD has a therapeutic effect on pulmonary arterial hypertension or not, the inventor first treated mice for 14 days in a continuous hypoxia environment to establish a model of pulmonary arterial hypertension (the groups 2-4), and then administration was started from day 15 to day 21 through gavage once a day, the mice were treated every day for 7 days (the group 3-4), and detection was performed on day 21.\nSample: paraffin sections of mouse lung tissue.\nObjective: observing the pathology of lung tissues to detect whether there is a vascular wall thickening phenomenon or not."}, "MgI2": {"test_system": "MgI2", "assay": "LPS-induced primary alveolar macrophages, MgI2 expression by fluorescence quantitative PCR", "type": "cell-based, mouse", "details": "0.5, 1, 5 μM CBD pre-treatment 0.5 h, then 100 ng/mL LPS, 5 h", "description": "as §1"}, "[2]": {"test_system": "C57BL/6 mice with pulmonary arterial hypertension caused by hypoxia", "assay": "Right ventricular systolic pressure (RVSP) in mice with pulmonary arterial hypertension caused by hypoxia", "type": "in vivo, mouse", "details": "day 15 to 21 of continuous hypoxia, detection on day 21, hypoxia model control 25.55±2.29, normoxia 17.54±1.48, mean±standard error", "method": "as §2, with “conditions. […]” for “conditions.”\nOn day 21, the mice were anesthetized by intraperitoneal injection of sodium pentobarbital (35 mg/kg), and the right ventricular systolic pressure was measured by using a catheter matched with a physiological instrument with reference to the right-heart catheterization reported by Song et al. (Song, Y., Jones, J. E., Beppu, H., Keaney, J. F., Jr., Loscalzo, J., and Zhang, Y. Y. (2005). Increased susceptibility to pulmonary hypertension in heterozygous BMPR2-mutant mice. Circulation 112, 553-562). […] After the catheter entered the right ventricle, RVSP was determined and recorded."}, "IL-6": {"test_system": "IL-6", "assay": "LPS-induced primary alveolar macrophages, IL-6 expression by fluorescence quantitative PCR", "type": "cell-based, mouse", "details": "0.5, 1, 5 μM CBD pre-treatment 0.5 h, then 100 ng/mL LPS, 5 h; dose-dependent", "description": "as §1"}, "[3]": {"test_system": "C57BL/6 mice with pulmonary arterial hypertension caused by hypoxia", "assay": "Right ventricular hypertrophy (RVH) index RV/(LV+S) in hypoxia PAH mice", "type": "in vivo, mouse", "details": "7 days, model group 32.62±1.41, normoxia 25.99±1.17, mean±standard error", "method": "as §2\nas §3, with “2-4. […]” for “2-4.”"}, "[4]": {"details": "after CBD treatment (10 and 50 mg/kg by gavage) versus hypoxia model group"}, "[5]": {"details": "both dose groups (10 and 50 mg/kg)"}}}
{"smiles": "C=C(C)[C@@H]1CCC(C)=C[C@H]1c1c(O)cc(CCCCC)cc1O", "note": "[CBD, Cannabidiol]", "values": [{"measurement": "expression of LPS-induced TNF-α", "setting": "TNF-α", "result": "significantly inhibit"}, {"measurement": "pulmonary arteriole remodeling", "setting": "[1]; [4]", "result": "significantly reduced"}, {"measurement": "vascular remodeling rate", "setting": "[1]; [4]", "result": "significantly reduced"}, {"measurement": "arterial medial wall thickness ratio", "setting": "[1]; [5]", "result": "reduction"}, {"measurement": "vascular wall medial cross-sectional area ratio", "setting": "[1]; [5]", "result": "reduction"}, {"measurement": "expression of MgI2, a gene that inhibited inflammation", "setting": "MgI2", "result": "promote"}, {"measurement": "mean right ventricular systolic pressure", "setting": "[2]; 10 mg/kg by gavage once a day", "result": "16.90±2.31", "unit": "mmHg"}, {"measurement": "mean right ventricular systolic pressure", "setting": "[2]; 50 mg/kg by gavage once a day", "result": "17.92±2.37", "unit": "mmHg"}, {"measurement": "expression of LPS-induced IL-6", "setting": "IL-6", "result": "significantly inhibit"}, {"measurement": "right ventricular hypertrophy index (right heart index)", "setting": "[3]; 10 mg/kg by gavage", "result": "30.18±1.01", "unit": "%"}, {"measurement": "right ventricular hypertrophy index (right heart index)", "setting": "[3]; 50 mg/kg by gavage", "result": "29.90±1.19", "unit": "%"}]}
